Assay results published in patent publication US11866416B2, “Streptococcus mutans glucosyl transferase inhibitors for dental caries therapy” (UAB Research Foundation, priority 2018, dated 2024).
In brackets after ≈: the same amount, converted by molar mass. Read-outs that look alike come from different tables or passages of the source. Marks after values point to notes of the source that are not given here.

Experiments:
S. mutans biofilm = S. mutans biofilm formation and inhibition assay (96-well plates, crystal violet); format: cell-based, Streptococcus mutans
Experimental: Biofilm assays using 96-well flat-bottom polystyrene microtiter plates were performed to evaluate S. mutans biofilm formation at various conditions as described (Liu et al. (2011) Antimicrobial Agents and Chemotherapy 55, 2679; Zhang et al. (2015) International Journal of Antimicrobial Agents 46, 174), the disclosures of which are incorporated herein by reference in their entirety). Each assay was replicated three times. Compounds that inhibited biofilm formation at minimum concentration (MBIC) were determined by serial dilutions.
S. mutans biofilm formation and inhibition assays. […] Each assay was replicated three times. Minimum biofilm inhibitory concentration (MBIC) of compounds was determined by serial dilutions.
S. mutans biofilm formation and inhibition assays. Biofilm assays using 96-well flat-bottom polystyrene microtiter plates were performed to evaluate S. mutans biofilm formation at various conditions as described. Each assay was replicated […]. Compounds that inhibited 50% biofilm formation were determined by serial dilutions.
S. mutans biofilm formation and inhibition assays. A well-established protocol to study S. mutans biofilm formation in 96-well flat-bottom polystyrene microtiter plates was used, in triplicate (Mattos-Graner, R. O.; Napimoga, M. H.; Fukushima, K.; Duncan, M. J.; Smith, D. J., Comparative analysis of Gtf isozyme production and diversity in isolates of Streptococcus mutans with different biofilm growth phenotypes. Journal of clinical microbiology 2004, 42 (10), 4586-4592). The stock solutions were made up in 100% DMSO, and final concentration of DMSO used in the assays was 1%. Minimum biofilm inhibitory concentration (MBIC) of compounds was determined by serial dilutions.

S. mutans = assay: microbe, parasite or virus in culture; format: cell-based, Streptococcus mutans; details: for Selectivity: growth versus biofilm
Experimental: Cell viability of S. mutans, S. gordonii, S. sanguinis, Aggregatibacter actinomycetemcomitans and Actinomyces. […] The number of colony-forming units (CFU) per milliliter of each sample treated with selected compounds at different concentrations was enumerated after incubation for 24 h at 37° C. and compared to the values obtained from the DMSO control group. Overnight broth cultures were transferred by 1:50 dilutions into fresh THB medium and were allowed to grow until mid-exponential phase (OD470 nm 0.6) before transfer to 96-well plates containing desired concentration of the compound. After 16 h incubation, bacterial growth was measured at OD470, and normalized to the DMSO control (100%).
Cell viability of S. mutans and commensal S. gordonii and S. sanguinis. Effects of lead small molecules on cell viability were examined. The number of colony-forming units (CFU) per milliliter for each compound at different concentrations was determined after incubation for 24 h at 37° C. and compared to the values obtained from the DMSO control group.
Cell viability of S. mutans and commensal S. gordonii and S. sanguinis. […] DMSO served as a control group and provided a relative comparison for the number of colony-forming units (CFU) per milliliter for each compound at different concentrations was determined after incubation for 24 h at 37° C. The final concentration of DMSO used in the assays was 1%.

[1] = Streptococcus mutans, Table 2, read-out: Biofilm Inhibition IC50
[2] = Streptococcus mutans, Table 2, >300 = no inhibition up to 300 μM, read-out: Growth Inhibition MIC50
[3] = Streptococcus mutans, Table 4, stilbenes, NI = no inhibition, read-out: Biofilm IC50
[4] = Streptococcus mutans, Table 8, stilbenes, NI = no inhibition, read-out: Biofilm IC50
[5] = Streptococcus mutans, Table 4, stilbenes, average of at least 5 measurements, NI = no inhibition, read-out: Growth MIC50
[6] = Table 8, stilbenes, average of at least 5 measurements, NI = no inhibition
[7] = Streptococcus mutans, Table 3, read-out: Biofilm Inhibition IC50
[8] = Streptococcus mutans, Table 3, >300 = no inhibition up to 300 μM, NI = no inhibition up to 400 μM, read-out: Growth Inhibition MIC50

Structure (SMILES)	IC50 (S. mutans biofilm; [1])	MIC50 (S. mutans; [2])	IC50 (S. mutans biofilm; [7])	MIC50 (S. mutans; [8])	also measured
NC(=O)c1cccc(NC(=O)c2cc3cc([N+](=O)[O-])ccc3[nH]2)c1 [Compound 298b2]	138 µM	> 300 µM			
Oc1ccc(/C=C/c2ccc(O)cc2)cc1 [Entry 4]					IC50 (S. mutans biofilm; [3]): 344 ± 17 µM; IC50 (S. mutans biofilm; [4]): 344 ± 17 µM; MIC50 (S. mutans; [5]): 854 ± 58 µM (≈ 181 µg/mL); Selectivity (S. mutans; Table 4, stilbenes): 2.4; Growth MIC50 (S. mutans; [6]): 854 ± 58 µM; Selectivity (S. mutans; Table 8, stilbenes): 2.4
N=C(N)c1ccc(/C=C/c2ccc(C(=N)N)cc2O)cc1 [Entry 5]					IC50 (S. mutans biofilm; [3]): 104 ± 7 µM; IC50 (S. mutans biofilm; [4]): 104 ± 7 µM; MIC50 (S. mutans; [5]): 179 ± 23 µM (≈ 50.2 µg/mL); Growth MIC50 (S. mutans; [6]): 179 ± 23 µM
COc1cc(O)cc(/C=C/c2ccccc2)c1 [Entry 6]					IC50 (S. mutans biofilm; [3]): 477 ± 51 µM; IC50 (S. mutans biofilm; [4]): 477 ± 51 µM; MIC50 (S. mutans; [5]): 546 ± 25 µM (≈ 124 µg/mL); Selectivity (S. mutans; Table 4, stilbenes): 1.1; Growth MIC50 (S. mutans; [6]): 546 ± 25 µM; Selectivity (S. mutans; Table 8, stilbenes): 1.1
COc1cc(/C=C/c2ccc(OC)c(O)c2)cc(OC)c1 [Entry 9]					IC50 (S. mutans biofilm; [3]): 122 ± 11 µM; IC50 (S. mutans biofilm; [4]): 122 ± 11 µM; MIC50 (S. mutans; [5]): 137 ± 6 µM (≈ 39.2 µg/mL); Selectivity (S. mutans; Table 4, stilbenes): 1.1; Growth MIC50 (S. mutans; [6]): 137 ± 6 µM; Selectivity (S. mutans; Table 8, stilbenes): 1.1
O=C(/C=C/c1ccc(O)c(O)c1)O[C@@H]1C[C@](O)(C(=O)O)C[C@@H](O)[C@H]1O [Entry 10]					IC50 (S. mutans biofilm; [3]): 518 ± 85 µM; IC50 (S. mutans biofilm; [4]): 518 ± 85 µM; MIC50 (S. mutans; [5]): 1720 ± 53 µM (≈ 611 µg/mL); Selectivity (S. mutans; Table 4, stilbenes): 3.3; Growth MIC50 (S. mutans; [6]): 1724 ± 53 µM; Selectivity (S. mutans; Table 8, stilbenes): 3.3
C[n+]1ccc(/C=C/c2ccc(O)c(O)c2)c2ccccc21 [Entry 11]					IC50 (S. mutans biofilm; [3]): 104 ± 6 µM; IC50 (S. mutans biofilm; [4]): 104 ± 6 µM; MIC50 (S. mutans; [5]): > 400 µM; Selectivity (S. mutans; Table 4, stilbenes): 4.0; MIC50 (S. mutans; Table 8, stilbenes, average of at least 5 measurements, NI = no inhibition, read-out: Growth MIC50): >400 µM; Selectivity (S. mutans; Table 8, stilbenes): 4.0
COc1ccc(/C=C/c2cc(O)cc(O[C@@H]3O[C@H](CO)[C@@H](O)[C@H](O)[C@H]3O)c2)cc1O [Entry 12]					IC50 (S. mutans biofilm; [3]): 106 ± 11 µM; IC50 (S. mutans biofilm; [4]): 106 ± 11 µM; MIC50 (S. mutans; [5]): 134 ± 11 µM (≈ 56.3 µg/mL); Selectivity (S. mutans; Table 4, stilbenes): 1.2; Growth MIC50 (S. mutans; [6]): 134 ± 11 µM; Selectivity (S. mutans; Table 8, stilbenes): 1.2
NC(=O)c1ccccc1NC(=O)c1ccc2ncoc2c1 [HW-1-179]	65.1 µM	> 300 µM			
COc1ccc(/C=C2\Oc3ccccc3C2=O)cc1OC [LC-I-197]			8.4 ± 1 µM	37.1 ± 6 µM (≈ 10.5 µg/mL)	
COc1ccc(/C=C2\Oc3ccccc3C2=O)c(OC)c1 [LC-I-203]			40.6 ± 3 µM	> 300 µM	
COc1cc(OC)c(OC)cc1/C=C1\Oc2ccccc2C1=O [LC-I-205]			8.3 ± 1 µM	> 300 µM	
O=C1/C(=C/c2ccccc2)Oc2ccccc21 [LC-I-206]			320 ± 21 µM	> 300 µM	
O=C(/C=C/c1ccc(O)c(O)c1)c1ccc(O)c(O)c1O [Okanin (natural), Okanin]			64 ± 7 µM	534 ± 17 µM (≈ 154 µg/mL)	
COc1cc(-c2[o+]c3cc(O)cc(O)c3cc2O)cc(O)c1O [PAC]			61.2 ± 2.3 µM	274 ± 45.8 µM	
Oc1cc(O)c2cc(O)c(-c3cc(O)c(O)c(O)c3)[o+]c2c1 [PBF]			135 ± 5.6 µM	262 ± 21 µM	
O=C(/C=C/c1ccc(O)cc1O)c1cccc(O)c1 [RZ-1-86]			32 ± 5 µM	469 ± 16 µM (≈ 120 µg/mL)	
O=C(/C=C/c1ccc(O)c(O)c1)c1ccccc1O [RZ-1-90]			356 ± 14 µM	> 300 µM	
CN(C)c1ncc(/C=C/C(=O)Nc2ccccc2C(N)=O)cn1 [SN-I-271S]	12.8 µM	> 300 µM			
NC(=O)c1ccccc1NC(=O)c1ccc2ncsc2c1 [SN-I-271U]	36.1 µM	> 300 µM			
O=C(O)c1ccc(NC(=O)c2cc3cc([N+](=O)[O-])ccc3s2)cc1 [SN-I-272OH]	15.6 µM	> 300 µM			

Structure (SMILES)	IC50 (S. mutans biofilm; [1])	MIC50 (S. mutans; [2])	IC50 (S. mutans biofilm; [7])	MIC50 (S. mutans; [8])	also measured
O=C(O)c1ccc(NC(=O)c2cc3ccccc3s2)cc1 [SN-I-272VH]	180 µM	> 300 µM			
NC(=O)c1ccccc1C(=O)Nc1cnc2ccccc2c1 [SN-I-285]	102 µM	> 300 µM			
[N-]=[N+]=Nc1ccc(NC(=O)c2cc3cc([N+](=O)[O-])ccc3s2)cc1 [SN-I-287]	250 µM	> 300 µM			
[N-]=[N+]=Nc1ccc(C(=O)Nc2ccccc2C(N)=O)cc1 [SN-I-288]	212 µM	> 300 µM			
[N-]=[N+]=Nc1ccc2sc(C(=O)Nc3ccccc3C(N)=O)cc2c1 [SN-II-14]	57.2 µM	> 300 µM			
COc1ccc(/C=C/C(=O)c2ccc(OC)c(OC)c2O)c(OC)c1 [SN-II-24-B6]			101 ± 3 µM	231 ± 12 µM (≈ 79.4 µg/mL)	
O=C(/C=C/c1ccc(O)cc1O)c1ccccc1O [SN-II-32]			250 ± 16 µM	327 ± 24 µM (≈ 83.8 µg/mL)	
O=C(/C=C/c1ccc(O)cc1O)c1ccc(O)cc1 [SN-II-49C]			77 ± 8 µM	782 ± 96 µM (≈ 200 µg/mL)	
NC(=O)c1cc(NC(=O)c2cc3cc([N+](=O)[O-])ccc3s2)cc(C(N)=O)c1 [SN-II-50]	4.6 µM	> 300 µM			
NC(=O)c1cc(NC(=O)c2cc3cc([N+](=O)[O-])ccc3s2)ccc1[N+](=O)[O-] [SN-II-59]	23.4 µM	> 300 µM			
O=c1c(O)c(-c2ccc(O)cc2O)oc2ccccc12 [SN-II-79]			65.9 ± 1 µM	30 ± 1 µM (≈ 8.11 µg/mL)	
Cl.NC(=O)c1ccccc1NC(=O)c1cc2cc(N)ccc2s1 [SN-II-81Cl]	9.6 µM				Growth Inhibition MIC50 (S. mutans; Table 2, >300 = no inhibition up to 300 μM): >300^b μM
NC(=O)c1ccccc1NC(=O)c1cc2cc(N)ccc2s1 [SN-II-81F]		> 300 µM			IC50 (S. mutans biofilm; Table 2, read-out: Biofilm Inhibition IC50): 56.4 µM
O=c1c(O)c(-c2cc(O)c(O)cc2O)oc2ccccc12 [SN-II-92]			19.8 ± 2 µM	63.1 ± 4 µM (≈ 18.1 µg/mL)	
COC(=O)c1cccc(NC(=O)c2cc3cc(N)ccc3o2)c1 [SN-II-105]	5.5 µM	347 µM (≈ 108 µg/mL)			
COC(=O)c1cccc(NC(=O)c2cc3cc(N/C(=N\C(=O)OC(C)(C)C)NC(=O)OC(C)(C)C)ccc3o2)c1 [SN-II-106]	14 µM	29 µM (≈ 16 µg/mL)			
COC(=O)c1cccc(NC(=O)c2cc3cc(NC(=N)N)ccc3o2)c1 [SN-II-107]	16.6 µM	45.9 µM (≈ 16.2 µg/mL)			
O=C1/C(=C/c2cc(O)c(O)cc2O)Oc2ccccc21 [SN-II-110]			10.2 ± 2 µM	157 ± 13 µM (≈ 42.3 µg/mL)	
O=C(/C=C/c1ccc(O)cc1)c1ccccc1O [SN-II-113]			213 ± 7 µM	> 300 µM	
COc1cc(O)ccc1/C=C1\Oc2ccccc2C1=O [SN-II-115]			133 ± 24 µM	153 ± 21 µM (≈ 41 µg/mL)	
O=C1/C(=C/c2ccc(O)c(O)c2)Oc2ccccc21 [SN-II-118]			280 ± 35 µM	263 ± 14 µM (≈ 66.8 µg/mL)	
